How the values were obtained:
[1] = molecular target: T1, MPK4/12, HT1 and CBC1 recombinant proteins (Arabidopsis thaliana, UniProt Q2MHE4); experiment: in vitro phosphorylation assay: NaHCO3-dependent down-regulation of HT1-mediated CBC1 phosphorylation; format: biochemical; details: HT1 and CBC1 only, no MPK4/MPK12; 20 mM NaHCO3, 30 min
T1 construct: His; made in house
Description: (§1) We tested whether this HT1-mediated activation of CBC1 is inhibited by CO2/bicarbonate by adding NaHCO3 in in vitro phosphorylation reactions. […]
(§2) FIG. 2. […] Histone was used as an artificial protein kinase substrate. • (B) MPK4, HT1 and CBC1 proteins were incubated with NaHCO3 at the indicated concentrations for 30 min, and in vitro phosphorylation assays were performed. • (C) CBC1 band intensities as shown in (B) were measured using IMAGEJ™, n=4 experiments, error bars show ±S.D. • (D) MPK4, HT1 and CBC1 proteins were incubated in reaction buffers adjusted at different pH (6.5 to 8.5) for 30 min, and in vitro phosphorylation assays were performed. • (E) CBC1 band intensities and the density-ratios of ‘+NaHCO3’ to ‘—NaHCO3’ (=+NaCl controls) for each pH condition
(§3) FIG. 3. […] Ambient CO2 concentrations are indicated by the top bars. n=7 experiments, error bars show ±SEM. • (C) Recombinant HT1 (wild type, HT1-G89R or HT1-R173Q) and CBC1 proteins were incubated with MPK4 in the presence or absence of 20 mM NaHCO3 or 20 mM NaCl (−controls) for 30 min, and in vitro phosphorylation assays were performed. • (D) Recombinant MPK12, CBC1 and HT1 (WT or R102K) proteins were incubated with or without 20 mM NaHCO3 or 20 mM NaCl (−controls) for 30 min, and in vitro phosphorylation assays were performed. Histone was used as an artificial kinase substrate. • (E) HT1 (WT or A109V) proteins were used for in vitro phosphorylation assays. Proteins were incubated with or without 20 mM NaHCO3 or 20 mM NaCl (−controls) for 30 min. • (F) Stomatal conductances were analyzed using intact plants of Arabidopsis (Col-0 (WT), cbc1 cbc2, ht1-A109V and cbc1 cbc2 ht1-A109V). CO2 concentration changes were applied as indicated on top (p.p.m.). […]

[2] = molecular target: T2, MPK4/12, HT1 and CBC1 recombinant proteins (Arabidopsis thaliana, UniProt Q2MHE4+Q39024); experiment: as above; format: biochemical
T2 construct: His; made in house
T2 sequence (Q39024 whole entry): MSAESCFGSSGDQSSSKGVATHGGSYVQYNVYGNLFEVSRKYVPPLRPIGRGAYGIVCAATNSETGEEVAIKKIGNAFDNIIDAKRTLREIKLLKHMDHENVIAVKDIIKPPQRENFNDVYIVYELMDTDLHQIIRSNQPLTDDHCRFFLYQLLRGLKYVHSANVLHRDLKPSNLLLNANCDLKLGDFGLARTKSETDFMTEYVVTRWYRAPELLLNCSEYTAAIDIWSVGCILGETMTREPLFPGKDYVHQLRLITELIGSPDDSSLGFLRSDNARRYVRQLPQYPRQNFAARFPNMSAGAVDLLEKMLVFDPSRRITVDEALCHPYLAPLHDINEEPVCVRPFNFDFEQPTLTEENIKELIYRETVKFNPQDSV
T2 sequence (Q2MHE4 whole entry): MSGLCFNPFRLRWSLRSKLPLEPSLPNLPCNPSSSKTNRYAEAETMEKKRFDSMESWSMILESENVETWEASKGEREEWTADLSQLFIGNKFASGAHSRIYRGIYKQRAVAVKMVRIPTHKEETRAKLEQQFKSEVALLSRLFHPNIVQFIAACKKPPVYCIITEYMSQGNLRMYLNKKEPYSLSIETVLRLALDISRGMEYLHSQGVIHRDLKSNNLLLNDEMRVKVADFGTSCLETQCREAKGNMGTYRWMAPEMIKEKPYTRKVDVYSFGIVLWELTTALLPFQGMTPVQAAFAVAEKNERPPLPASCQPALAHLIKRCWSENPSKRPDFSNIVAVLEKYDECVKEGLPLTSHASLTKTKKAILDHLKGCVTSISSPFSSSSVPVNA
Description: as §1, §2, §3

[3] = system: MPK4/12, HT1 and CBC1 recombinant proteins; experiment: as above; format: biochemical, Arabidopsis
Description: as §1, §2, §3

[4] = molecular target: T3, MPK4 and HT1 (Arabidopsis thaliana, UniProt Q2MHE4+Q39024); experiment: in vitro pull-down assay, His-HT1 with GST-MPK4; format: binding; details: 20 mM NaHCO3 in all buffers
T3 construct: made in house
T3 sequence (Q39024 whole entry): as the sequence (Q39024 whole entry) above
T3 sequence (Q2MHE4 whole entry): as the sequence (Q2MHE4 whole entry) above
Description: We therefore investigated a possible binding between MPK4 and HT1 and the effect of HCO3^−.
FIG. 4. […] CO2 concentration changes were applied as indicated on top (p.p.m.). n=6 experiments, error bars show ±SEM. • (J) Model of plant stomatal CO2 sensor and signaling (see text).
FIG. 6. […] Precipitated proteins were washed with buffers supplemented with NaHCO3 at the indicated concentrations (0, 2 or 20 mM). See FIG. 4d for an independent experiment. To control for effects of Na^+, 20 mM NaCl (0 mM NaHCO3) for lanes 1 and 4 were included in the buffers; and 18 mM NaCl (2 mM NaHCO3) for lane 3 were included in buffer.

[5] = system: S-type anion channels; details: proposed secondary HCO3- response mechanism (ref. 10); cited from earlier work

T1 sequence (Q2MHE4 whole entry): as above

O=C(O)O [NaHCO3]
effect of NaHCO3 on CBC1 phosphorylation level [1]: no clear effect | EC50 [2]: ~7.1 mM | effect of NaHCO3 on CBC1 phosphorylation at different pH ([2]; MPK4 and HT1 present, high pH conditions at ≥pH 7.5 (buffers pH 6.5 to 8.5)): inhibited CBC1 phosphorylation | effect of NaHCO3 on CBC1 and histone phosphorylation ([3]; MPK4 or MPK12 added to HT1 and CBC1, 20 mM NaHCO3, 30 min): inhibited both CBC1 phosphorylation and histone phosphorylation | kinase activities of CBC1, HT1 or MPK4 exposed to NaHCO3 individually ([3]; each kinase alone, 20 mM NaHCO3, 30 min): not affected | CBC1 activity in response to NaHCO3 ([3]; only MPK12 and CBC1 in the reaction, no HT1, 20 mM NaHCO3): not affected | HT1 kinase activity in response to NaHCO3 ([3]; only in the presence of MPK12, 20 mM NaHCO3): inhibited | effect of HCO3- on binding between MPK4 and HT1 [4]: greatly enhanced the binding | modulation of activity of S-type anion channels by HCO3- [5]: ~20%

Reference: patent publication US20260078398A1, “PLANTS GENETICALLY ENGINEERED FOR INCREASED WATER USE EFFICIENCY AND CARBON INTAKE AND METHODS FOR MAKING AND USING THEM” (The Regents of the University of California, priority 2022, published 2026)
